These are literature values, as cited in US5362498A, “Process for preparing a bioadhesive pharmaceutical dosage form and pharmaceutical dosage form thus prepared” (priority 1990, dated 1994).

The conditions of the data set: metabolite produced by digestive tract absorption of morphinic active principles.

Regarding `CN1CC[C@]23c4c5ccc(O)c4O[C@H]2[C@@H](O[C@@H]2O[C@H](C(=O)O)[C@@H](O)[C@H](O)[C@H]2O)C=C[C@H]3[C@H]1C5` [morphine 6-glucuronide], the relative potency was 1.5 times.
